Data as given in ChEMBL document CHEMBL6120981, “Optimisation of a novel series of ENaC inhibitors, leading to the selection of the long-acting inhaled clinical candidate ETD001, a potential new treatment for cystic fibrosis” (Eur J Med Chem, 2025).
Activity calls are given as the source filed them. The calls are words filed in the database; no cut-off is given here.

What was measured:
[1] = Inhibition of ENaC in human Primary bronchial epithelial cell; type: cell-based
[2] = Lipophilicity, log D of the compound; type: physicochemical; conditions: octanol/water
Ovis aries [3] = assay: (§1) Mucociliary clearance activity in sheep mucociliary clearance model assessed as effective dose administered as inhalation pre-administered for 4 to 6 hrs followed by aerosolized technetium-labeled sulfur colloid (99mTc-Sc , 20 mCi) addition by Scintigraphic imaging based analysis; type: functional; conditions: time 4-6 hrs
[4] = Drug uptake in male Sprague-Dawley rat Bronchoalveolar lavage assessed as fold decrease BAL level at 0.3 mg/kg, IT measured upto 6 hrs by LC-MS/MS analysis; type: ADME, organism-based; conditions: in vivo, other
[5] = Drug uptake in male Sprague-Dawley rat lung at 0.3 mg/kg, IT measured upto 6 hrs by LC-MS/MS analysis; type: ADME, organism-based; conditions: in vivo, other
Ovis aries [6] = assay: as §1, with “assessed as improvement in lung residence time” for “effective dose”; type: functional, organism-based; conditions: time 4-6 hrs
[7] = Drug uptake in male Sprague-Dawley rat Bronchoalveolar lavage assessed as decrease BAL level at 0.3 mg/kg, IT measured after 6 hrs by LC-MS/MS analysis relative to control; type: ADME, organism-based; conditions: in vivo, other
[8] = Plasma protein binding in human; type: ADME, cell-free; conditions: read-out: PPB (converted)
[9] = Plasma protein binding in rat; type: ADME, cell-free; conditions: read-out: PPB (converted)
[10] = Plasma protein binding in dog; type: ADME, cell-free, Canis lupus familiaris; conditions: read-out: PPB (converted)
Cytochrome P450 = assay: Inhibition of CYP450 (unknown origin); type: ADME, protein assay; conditions: human
[11] = molecular target: Voltage-gated inwardly rectifying potassium channel KCNH2 (Homo sapiens, UniProt Q12809); assay: Inhibition of human ERG at 30 uM by automated patch clamp method; type: toxicity
[12] = molecular target: Voltage-dependent L-type calcium channel subunit alpha-1C (Homo sapiens, UniProt Q13936); assay: Inhibition of Cav1.2 (unknown origin) at 10 uM by automated patch clamp method
[13] = molecular target: Sodium channel protein type 5 subunit alpha (Homo sapiens, UniProt Q14524); assay: Inhibition of Nav1.5 (unknown origin) 10 uM by automated patch clamp method
[14] = molecular target: Potassium voltage-gated channel subfamily A member 5 (Homo sapiens) (UniProt P22460); assay: Inhibition of Kv1.5 (unknown origin) at 10 uM by automated patch clamp method
[15] = Mutagenicity in Salmonella typhimurium strains by Ames test; type: toxicity; conditions: salmonella enterica subsp. enterica serovar typhimurium

Sequence of Sodium channel protein type 5 subunit alpha (Q14524 whole entry): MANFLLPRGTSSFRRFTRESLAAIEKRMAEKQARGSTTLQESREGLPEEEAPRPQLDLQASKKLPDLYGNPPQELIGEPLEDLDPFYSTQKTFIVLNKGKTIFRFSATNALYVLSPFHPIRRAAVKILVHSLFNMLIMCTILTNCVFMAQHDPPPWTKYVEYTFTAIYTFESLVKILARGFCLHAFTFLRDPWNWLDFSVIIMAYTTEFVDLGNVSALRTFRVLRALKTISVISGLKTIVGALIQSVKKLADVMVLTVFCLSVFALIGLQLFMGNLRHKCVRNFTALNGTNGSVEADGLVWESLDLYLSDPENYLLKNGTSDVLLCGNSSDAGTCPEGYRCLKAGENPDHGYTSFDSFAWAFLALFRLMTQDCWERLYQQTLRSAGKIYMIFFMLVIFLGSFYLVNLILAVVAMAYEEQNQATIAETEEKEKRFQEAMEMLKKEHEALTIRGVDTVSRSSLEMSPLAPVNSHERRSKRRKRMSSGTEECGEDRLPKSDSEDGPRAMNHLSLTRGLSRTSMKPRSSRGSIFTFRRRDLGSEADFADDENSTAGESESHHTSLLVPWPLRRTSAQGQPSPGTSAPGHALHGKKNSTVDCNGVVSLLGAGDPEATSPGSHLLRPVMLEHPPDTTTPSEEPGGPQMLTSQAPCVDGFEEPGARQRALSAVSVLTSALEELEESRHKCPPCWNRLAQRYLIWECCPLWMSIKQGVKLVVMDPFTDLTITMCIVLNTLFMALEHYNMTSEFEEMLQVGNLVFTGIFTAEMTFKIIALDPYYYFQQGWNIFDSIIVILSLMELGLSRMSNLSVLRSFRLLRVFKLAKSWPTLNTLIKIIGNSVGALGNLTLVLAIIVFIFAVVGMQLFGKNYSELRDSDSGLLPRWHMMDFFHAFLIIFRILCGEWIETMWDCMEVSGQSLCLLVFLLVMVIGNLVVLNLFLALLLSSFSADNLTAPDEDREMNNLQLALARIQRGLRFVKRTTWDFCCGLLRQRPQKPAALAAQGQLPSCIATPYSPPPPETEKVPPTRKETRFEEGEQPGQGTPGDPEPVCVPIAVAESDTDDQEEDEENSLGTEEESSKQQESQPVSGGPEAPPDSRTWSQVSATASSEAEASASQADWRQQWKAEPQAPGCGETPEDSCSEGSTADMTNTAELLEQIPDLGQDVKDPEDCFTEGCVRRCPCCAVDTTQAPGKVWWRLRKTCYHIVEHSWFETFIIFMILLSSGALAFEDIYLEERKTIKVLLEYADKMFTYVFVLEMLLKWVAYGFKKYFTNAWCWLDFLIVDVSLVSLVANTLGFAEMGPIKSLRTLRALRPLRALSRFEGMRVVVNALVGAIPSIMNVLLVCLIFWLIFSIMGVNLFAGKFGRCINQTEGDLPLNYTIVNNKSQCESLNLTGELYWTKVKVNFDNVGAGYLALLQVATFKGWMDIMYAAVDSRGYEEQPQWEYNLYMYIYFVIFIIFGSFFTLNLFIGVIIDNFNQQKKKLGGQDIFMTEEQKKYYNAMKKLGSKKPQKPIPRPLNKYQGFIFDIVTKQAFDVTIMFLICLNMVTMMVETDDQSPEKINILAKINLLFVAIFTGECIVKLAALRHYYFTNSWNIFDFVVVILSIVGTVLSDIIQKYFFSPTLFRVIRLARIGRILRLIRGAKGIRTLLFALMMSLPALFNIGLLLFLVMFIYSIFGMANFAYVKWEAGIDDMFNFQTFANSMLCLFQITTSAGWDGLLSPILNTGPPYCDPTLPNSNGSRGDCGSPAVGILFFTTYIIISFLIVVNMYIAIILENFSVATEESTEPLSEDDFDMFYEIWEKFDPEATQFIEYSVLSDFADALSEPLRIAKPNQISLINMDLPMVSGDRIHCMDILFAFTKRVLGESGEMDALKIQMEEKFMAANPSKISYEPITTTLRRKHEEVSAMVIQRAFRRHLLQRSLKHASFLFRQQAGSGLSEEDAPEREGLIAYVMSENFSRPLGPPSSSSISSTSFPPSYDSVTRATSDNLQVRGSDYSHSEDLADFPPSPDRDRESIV
Sequence of Voltage-gated inwardly rectifying potassium channel KCNH2 (Q12809 whole entry): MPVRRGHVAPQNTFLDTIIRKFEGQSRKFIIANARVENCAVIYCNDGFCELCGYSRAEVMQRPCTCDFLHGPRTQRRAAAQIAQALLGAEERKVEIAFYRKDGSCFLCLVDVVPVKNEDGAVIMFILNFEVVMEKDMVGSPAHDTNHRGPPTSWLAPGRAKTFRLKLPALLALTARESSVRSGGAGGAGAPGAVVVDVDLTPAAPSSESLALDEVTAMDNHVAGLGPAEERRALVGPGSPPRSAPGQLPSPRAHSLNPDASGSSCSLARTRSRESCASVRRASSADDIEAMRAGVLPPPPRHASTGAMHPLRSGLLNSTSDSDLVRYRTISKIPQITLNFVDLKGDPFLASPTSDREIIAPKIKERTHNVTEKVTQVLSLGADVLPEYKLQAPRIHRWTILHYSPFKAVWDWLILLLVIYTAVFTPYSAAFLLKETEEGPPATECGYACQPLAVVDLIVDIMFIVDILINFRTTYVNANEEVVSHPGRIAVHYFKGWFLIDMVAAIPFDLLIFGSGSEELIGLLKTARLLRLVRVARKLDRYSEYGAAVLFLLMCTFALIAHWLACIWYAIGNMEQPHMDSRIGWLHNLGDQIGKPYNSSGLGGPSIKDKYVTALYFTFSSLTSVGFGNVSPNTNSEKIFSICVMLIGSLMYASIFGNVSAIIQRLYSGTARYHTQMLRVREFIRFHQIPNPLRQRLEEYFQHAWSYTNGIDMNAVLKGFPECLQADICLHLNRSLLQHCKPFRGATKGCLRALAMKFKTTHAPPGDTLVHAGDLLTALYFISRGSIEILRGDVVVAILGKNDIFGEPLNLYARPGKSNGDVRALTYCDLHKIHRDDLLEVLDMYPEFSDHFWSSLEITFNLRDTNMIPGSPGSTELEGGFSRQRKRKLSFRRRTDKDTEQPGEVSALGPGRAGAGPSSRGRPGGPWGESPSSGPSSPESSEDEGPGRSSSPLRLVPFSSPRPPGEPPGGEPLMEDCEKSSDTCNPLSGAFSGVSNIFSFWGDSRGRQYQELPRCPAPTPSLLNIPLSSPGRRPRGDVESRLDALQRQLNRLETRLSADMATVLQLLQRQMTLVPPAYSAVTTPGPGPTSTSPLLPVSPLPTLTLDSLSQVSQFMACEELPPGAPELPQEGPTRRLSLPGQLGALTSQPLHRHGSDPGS
Sequence of Potassium voltage-gated channel subfamily A member 5 (Homo sapiens) (P22460 whole entry): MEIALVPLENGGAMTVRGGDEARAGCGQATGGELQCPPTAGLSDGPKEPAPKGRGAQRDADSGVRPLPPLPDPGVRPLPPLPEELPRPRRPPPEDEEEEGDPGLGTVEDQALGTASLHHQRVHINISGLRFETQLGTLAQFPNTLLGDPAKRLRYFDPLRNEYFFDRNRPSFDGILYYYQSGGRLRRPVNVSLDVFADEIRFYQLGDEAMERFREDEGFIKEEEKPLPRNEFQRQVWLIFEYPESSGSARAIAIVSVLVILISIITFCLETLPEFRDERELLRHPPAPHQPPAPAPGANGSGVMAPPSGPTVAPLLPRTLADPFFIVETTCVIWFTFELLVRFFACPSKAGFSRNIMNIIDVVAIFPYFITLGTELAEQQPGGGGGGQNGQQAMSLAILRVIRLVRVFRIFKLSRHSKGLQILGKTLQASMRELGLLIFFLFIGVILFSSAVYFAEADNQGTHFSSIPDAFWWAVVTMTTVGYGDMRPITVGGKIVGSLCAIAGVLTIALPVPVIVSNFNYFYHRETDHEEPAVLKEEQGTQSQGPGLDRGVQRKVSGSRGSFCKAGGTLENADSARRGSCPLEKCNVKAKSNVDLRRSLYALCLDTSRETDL

| IC50 [1] | logD [2] | SMILES | ED100 (Ovis aries [3]) | other results |
| --- | --- | --- | --- | --- |
| 224 nM | 0.9 | CCc1cnc(N)c(C(=O)NCc2n(CC)c3cc(OC)ccc3[n+]2C)n1 | – | – |
| 18 nM | 1 | CCn1c(CNC(=O)c2nc3cc[nH]c3nc2N)[n+](CC)c2ccc(C(=O)NCCCN(C[C@H](O)[C@@H](O)[C@H](O)[C@H](O)CO)C[C@H](O)[C@@H](O)[C@H](O)[C@H](O)CO)cc21.O=C(O)C(F)(F)F.O=C([O-])C(F)(F)F | 0.026 mg/kg | – |
| 10 nM | – | CCn1c(CNC(=O)c2nc3cc[nH]c3nc2N)[n+](CC)c2ccc(C(=O)NCCN3CCC(N)CC3)cc21 | – | – |
| 2.5 nM | 0.9 | CCn1c(CNC(=O)c2nc3cc[nH]c3nc2N)[n+](CC)c2ccc(OC)cc21 | – | – |
| 7.1 nM | 1 | CCn1c(CNC(=O)c2nc3cc[nH]c3nc2N)[n+](CC)c2ccc(C(=O)NC3CCN(C[C@H](O)[C@@H](O)[C@H](O)[C@H](O)CO)CC3)cc21.O=C(O)C(F)(F)F.O=C([O-])C(F)(F)F | 0.031 mg/kg | – |
| 3 nM | 0.8 | CCn1c(CNC(=O)c2nc(Br)cnc2N)[n+](C)c2ccc(OC)cc21.[I-] | > 0.101 mg/kg | fold change (FC) [4]: 200; Drug uptake [5]: Not_active |
| 11 nM | 0.6 | CCn1c(CNC(=O)c2nc3cc[nH]c3nc2N)[n+](CC)c2ccc(C(=O)N3CCC(N)CC3)cc21.Cl.[I-] | 0.025 mg/kg | Activity (Ovis aries [6]): Active |
| 7.7 nM | 1 | CCn1c(CNC(=O)c2nc3cc[nH]c3nc2N)[n+](C)c2ccc(OC)cc21.O=C[O-] | 0.158 mg/kg | Activity (Ovis aries [6]): Active; fold change (FC) [4]: 50; Drug uptake [5]: Active |
| 7 nM | 1.5 | CCn1c(CNC(=O)c2nc3cc[nH]c3nc2N)[n+](CC)c2ccc(OCCCN)cc21 | – | – |
| 14 nM | 1 | CCn1c(CNC(=O)c2nc3cc[nH]c3nc2N)[n+](CC)c2ccc(OCCN)cc21 | – | – |
| 15 nM | 0 | CCn1c(CNC(=O)c2nc3cc[nH]c3nc2N)[n+](CC)c2ccc(C(=O)NCCCN)cc21 | – | – |
| > 7700 nM | 0.8 | CCn1c(CNC(=O)c2nc3ccn(C)c3nc2N)[n+](C)c2ccc(OC)cc21 | – | – |
| 22 nM | 1 | CCn1c(CNC(=O)c2nc3cc[nH]c3nc2N)[n+](CC)c2ccc(OCCCN(C[C@H](O)[C@@H](O)[C@H](O)[C@H](O)CO)C[C@H](O)[C@@H](O)[C@H](O)[C@H](O)CO)cc21.O=C(O)C(F)(F)F.O=C([O-])C(F)(F)F | 0.019 mg/kg | – |
| 7.2 nM | – | CCn1c(CNC(=O)c2nc3cc[nH]c3nc2N)[n+](CC)c2ccc(C(=O)NC3CCNCC3)cc21 | – | – |
| 4 nM | < 1 | CCn1c(CNC(=O)c2nc(C)cnc2N)[n+](C)c2ccc(OC)cc21 | – | – |
| 2 nM | 0.9 | CCn1c(CNC(=O)c2nc(Cl)cnc2N)[n+](C)c2ccc(OC)cc21 | – | – |
| 57 nM | 2.8 | CCn1c(CNC(=O)c2nc3cc[nH]c3nc2N)[n+](CC)c2ccc(C(=O)N3CCC(N(C[C@H](O)[C@@H](O)[C@H](O)[C@H](O)CO)C[C@H](O)[C@@H](O)[C@H](O)[C@H](O)CO)CC3)cc21.O=C(O)C(F)(F)F.O=C([O-])C(F)(F)F | 0.009 mg/kg | fold change (FC) [4]: 3; Drug uptake [7]: 13%; fraction unbound [8]: 0.9; fraction unbound [9]: 0.9; fraction unbound [10]: 0.9; inhibition (INH) (Cytochrome P450): Not_active; inhibition (INH) [11]: Not_active; inhibition (INH) [12]: Not_active; inhibition (INH) [13]: Not_active; inhibition [14]: inactive; Activity [15]: Non-toxic |
| 51 nM | – | CCn1c(CNC(=O)c2nc3cc[nH]c3nc2N)[n+](CC)c2ccc(OCCN(C[C@H](O)[C@@H](O)[C@H](O)[C@H](O)CO)C[C@H](O)[C@@H](O)[C@H](O)[C@H](O)CO)cc21 | – | – |
| 2.5 nM | – | CCn1c(CNC(=O)c2nc3cc[nH]c3nc2N)[n+](CC)c2ccc(OCCNC(=N)N)cc21 | – | – |
| 38 nM | – | CCn1c(CNC(=O)c2nc3cc[nH]c3nc2N)[n+](CC)c2ccc(C(=O)NCCN3CCC(N(C[C@H](O)[C@@H](O)[C@H](O)[C@H](O)CO)C[C@H](O)[C@@H](O)[C@H](O)[C@H](O)CO)CC3)cc21.O=C(O)C(F)(F)F.O=C([O-])C(F)(F)F | 0.025 mg/kg | – |
